# Experimental data taken from patent US20240108641A1, “COMPOSITIONS FOR ORAL ADMINISTRATION OF ZOLEDRONIC ACID OR RELATED COMPOUNDS FOR TREATING DISEASE” (ANTECIP BIOVENTURES II LLC, priority 2012, published 2024).
# Assay: in vivo
# Details: beagle, dog, po, 150 mg
# Protocol: Tablets were manufactured containing either pure zoledronic acid or the disodium salt of zoledronic acid (disodium zoledronate tetrahydrate). Both types of tablets contained 50 mg of zoledronic acid equivalent per tablet. Identical excipients were used in both types of tablets, with amounts adjusted to account for the difference in molecular weights between the acid and the disodium salt.
# Beagle dogs were orally administered tablets containing 150 mg zoledronic acid equivalent either in the form of disodium zoledronate (Group 1) or pure zoledronic acid (Group 2). Each animal was given three 50 mg equivalent tablets (150 mg total), which were administered together. The animal's oral cavity was wetted with water before placing the tablets on the back of the animal's tongue. Animals were fasted before and after dosing. Animals were 6 to 9 months of age and weighed 6 to 10 kg on the day of dosing. There were three dogs per group.
# Serial blood samples were collected from each animal by venipuncture of the jugular vein at various points after dosing for measurement of plasma concentrations of zoledronic acid. Blood samples were collected into chilled tubes containing K2EDTA as the anticoagulant. Samples were then centrifuged at approximately 3000 rpm at +4° C. for 10 minutes for plasma derivation. Plasma concentrations of zoledronic acid were measured using an LC/MS/MS method.
smiles,measurement,value
O=P(O)(O)C(O)(Cn1ccnc1)P(=O)(O)O [zoledronic acid],AUC(0-inf),2220 ng·h/mL
